Patent US4080466A, “Pharmaceutical compositions containing 4-hydroxyl-1,3-dithiolan-2-ylidene malonates” (Nihon Nohyaku Co., Ltd., priority 1976, dated 1978)

What was measured:
glucose metabolism [1] = experiment: Effect on glucose metabolism; assay type: in vivo, mice; conditions: 250 mg/kg oral, 6 h before glucose 4.0 g/kg
Description: The test compounds dissolved in olive oil and administered orally at the dose of 250 mg/kg to the mice. After 6 hours, 4.0 g/kg of glucose was orally administered. The same amount of glucose was given to the control animals. 0.02 ml of blood was taken from caudal vein of the mice at 30, 60, 90 and 120 min. after glucose administration. Blood sugar was measured by the procedure of Somogyi-Nelson. Number of animals used was 5 to 6 mice for each treatment.

bile flow = experiment: Cholagogic Action: effect on bile flow; assay type: in vivo, rats (SD-JCL strain); conditions: 200 mg/kg oral; for Bile flow: before treatment = 100
Description: (§1) Drugs as choleresis are used for patients to improve bile flow. In the present example, the effect of the compound of the invention on the quantities of bile and biliary salt is investigated. Methods:
(§2) The male rats (4 week-aged, SD-JCL strain) were anesthetized with sodium pentobarbital (37.5 mg/kg, intraperitoneal injection). The abdominal cavity was opened through a midline incision. The common bile duct was catheterized with polyethylene tube o.d. 0.8 mm. The catheter was brought to the outside through the abdominal incision would prior to closing. Bile was collected from the catheter continuously with time intervals of one hour. The quantity of bile produced in one hour was determined by weighing and that of biliary salt was determined by enzymatic method (Ikagaku Jikkenho Koza 1B, Biological Constituents II, edited by Tamio YAMAKAWA). The amount of biliary salt was represented in the term of cholic acid equivalent.
(§3) In the representation of the results, the quantities of bile and biliary salt produced in one hour prior to the administration of drug were taken as 100. The compound of this invention was orally administered at the dose of 200 mg/kg. As reference, anethol trithion was used.

[2] = tested on: fatty liver induced by ethionine; experiment: Effect on Fatty Liver (ethionine); assay type: in vivo, mouse (dd-strain); conditions: 250 mg/kg oral, 24 h, 10 animals
Description: But, the fatty liver is grouped into a couple of patterns from the mechanism of lipid accumulation or metabolism of lipoprotein in the liver. Ethionine is a typical example which induces first pattern of fatty liver. It inhibits RNA and protein synthesis and destructs polysome of the liver cell. Fatty liver is induced by inhibition of the protein synthesis and disturbance of lipoprotein secretion.
Usually, fatty liver is closely related to the accumulation of triglyceride in the liver. In the present example, the degree of fatty liver and protective or therapeutic effect against the fatty liver was evaluated by measurement of triglyceride content in the liver. Methods:
The compounds of this invention and methionine were independently dissolved or suspended into olive oil and administered orally to 4 week-old male mouse (dd-strain) at the dose of 250 mg/kg. One hour before it, simultaneously to it, or one hour after it, ethionine dissolved in equimolar NaOH solution was administered intraperitoneally at the dose of 200 mg/kg. Twenty four hours after the administration of ethionine, the animals were sacrificed and triglyceride content in the liver was determined by chromotropic acid method.

[3] = tested on: acute liver damage induced by carbon tetrachloride; experiment: Protective Effect on Acute Liver Damage associated with Centrilobular Necrosis (carbon tetrachloride); assay type: in vivo, mice (dd-strain); conditions: 250 mg/kg oral, average of 5 to 6 mice
Description: Carbon tetrachloride (CCl4) administration induces centrilobular necrosis of the liver associated with loss of diphosphopyridine nucleotide, hepatic glycogen, coenzyme A and increase in neutral fat. Release of several enzymes from the hepatocytes, and increase of enzyme activities in the plasma are recognized as the result of the damage of the liver. A suitable means for evaluating the degree of damage induced by CCl4 or the degree of protection afforded by drugs is to study the plasma glutamic-pyruvic transminase (p-GPT) activity.
Methods: The test compounds were dissolved or suspended in olive oil and administered orally at the dose of 250 mg/kg to the mice (Four-week-old male mice-dd strain). After 6 hours, CCl4 was administered orally (0.05 ml/kg as olive oil solution). Animals were killed 24 hours after CCl4 administration, and the liver was grossly observed. The plasma was obtained by centrifugation. Activities of p-GPT were determined by the method of Reitman and Frankel and expressed in Karmen units.
Score for liver damage index was as follows:
4 Clearly observable damage
Each figure indicates average of 5 to 6 mice. Values of p-GPT over 1,000 Karmen unit regarded as 1,000 for calculation of average for convenience.

[4] = tested on: excretion of biliary salt; experiment: Cholagogic Action: effect on the excretion of biliary salt; assay type: in vivo, rats (SD-JCL strain); conditions: 200 mg/kg oral; for Excretion of biliary salt: before treatment = 100
Description: as §1, §2, §3

[5] = tested on: fatty liver induced by carbon tetrachloride; experiment: Therapeutic Effect on Fatty Liver (carbon tetrachloride); assay type: in vivo, rats (SD strain); conditions: 10 days; for Degree of fatty liver (histopathological examination): one symbol per animal
Description: Methods: […] The treated animals were left for 3 days after the last administration to maximize the manifestation of fatty liver. […] It was orally given everyday for 10 days at the dose of 50 or 250 mg/kg. On the 11th day, the animals were sacrificed. The therapeutic effect was evaluated by determining the content of liquid in the liver (triglyceride and total lipid) and examining the histopathological changes. Triglyceride and total lipid were determined colorimetrically by chromotropic acid method and Bragdon's oxidation method, respectively. Indices for the histopathological change is as follows: […]

glucose metabolism [6] = experiment: Effect on glucose metabolism; assay type: in vivo, mice; conditions: 250 mg/kg oral, 6 h before glucose 4.0 g/kg; 0 min
[7] = tested on: alcohol metabolic function of liver; experiment: Effect on Concentration of Ethyl alcohol in the Blood; assay type: in vivo, mice; conditions: 250 mg/kg oral, 6 h before ethyl alcohol 1,000 mg/kg
Description: After 6 hours, 1,000 mg/kg of ethyl alcohol was given orally. Blood was taken in a capillary from caudal vein at the time indicated in the results. The plasma was obtained by centrifugation. The concentration of ethyl alcohol in the plasma was measured by FID type gas liquid chromatography. Five mice were used for each group.

Question: For CCOC(=O)C(C(=O)OCC)=C1SCC(O)S1 (stereo not drawn) [Compound 1, Diethyl 4-hydroxy-1,3-dithiolan-2-ylidene malonate], which “Blood Sugar” value (glucose metabolism [1]; 30 min) is on record?
Answer: Its value is 260 ± 20.4 mg/dL.

Question: What about the “Blood Sugar” value (glucose metabolism [1]; 60 min) of the same compound?
Answer: Its value is 228 ± 15.2 mg/dL.

Question: What about the “Blood Sugar” value (glucose metabolism [1]; 90 min) of the same compound?
Answer: The value was 188 ± 11.3 mg/dL.

Question: And the “Blood Sugar” value (glucose metabolism [1]; 120 min)?
Answer: The value was 132 ± 10.4 mg/dL.

Question: What about the Bile flow (bile flow; 1 hour after treatment) of the same compound?
Answer: The Bile flow was 110 ± 1.8.

Question: What about the Bile flow (bile flow; 2 hours after treatment) of the same compound?
Answer: The Bile flow was 115 ± 6.8.

Question: And the Bile flow (bile flow; 3 hours after treatment)?
Answer: Its Bile flow is 105 ± 6.2.

Question: What about the Bile flow (bile flow; 4 hours after treatment) of the same compound?
Answer: The Bile flow was 98 ± 8.2.

Question: What about the “Quantity of total excreted bile relative to control” value (bile flow; 5 hours after administration) of the same compound?
Answer: Its value is 1.10 times.

Question: And the Bile flow (bile flow; 5 hours after treatment)?
Answer: The Bile flow was 80 ± 6.8.

Question: And the Triglyceride ([2]; compound 1 hr after ethionine)?
Answer: Its Triglyceride is 11.8 ± 0.72 mg/g-liver.

Question: And the Triglyceride ([2]; compound 1 hr before ethionine (200 mg/kg i.p.))?
Answer: Its Triglyceride is 12.3 ± 0.82 mg/g-liver.

Question: What about the Triglyceride ([2]; simultaneous with ethionine (0 hr)) of the same compound?
Answer: The Triglyceride was 7.1 ± 0.24 mg/g-liver.

Question: What about the Liver damage index ([3]; 6 h before CCl4 (0.05 ml/kg oral), score 0 Normal, 2 slight, 4 clear, 6 heavy damage) of the same compound?
Answer: Its Liver damage index is 0.5.

Question: What about the “p-GPT (plasma glutamic-pyruvic transaminase activity)” value ([3]; 6 h before CCl4, 24 h after CCl4, values over 1,000 regarded as 1,000) of the same compound?
Answer: Its value is 66 Karmen units.

Question: And the “Excretion of biliary salt” value ([4]; 1 hour after treatment)?
Answer: The value was 103 ± 6.8.

Question: What about the “Excretion of biliary salt” value ([4]; 2 hours after treatment) of the same compound?
Answer: Its value is 102 ± 6.6.

Question: And the “Excretion of biliary salt” value ([4]; 3 hours after treatment)?
Answer: Its value is 100 ± 5.8.

Question: What about the “Excretion of biliary salt” value ([4]; 4 hours after treatment) of the same compound?
Answer: The value was 95 ± 7.7.

Question: And the “Amount of total excreted biliary salts relative to control” value ([4]; 5 hours after administration)?
Answer: Its value is 1.40 times.

Question: And the “Excretion of biliary salt” value ([4]; 5 hours after treatment)?
Answer: The value was 86 ± 5.2.

Question: And the Total lipid ([5]; 50 mg/kg oral)?
Answer: The Total lipid was 80.2 ± 9.8 mg/g-liver.

Question: What about the Triglyceride ([5]; 50 mg/kg oral) of the same compound?
Answer: Its Triglyceride is 36.2 ± 7.8 mg/g-liver.

Question: What about the “Degree of fatty liver (histopathological examination)” value ([5]; 50 mg/kg oral) of the same compound?
Answer: The value was “± + ± ± ± ± +”.

Question: What about the Total lipid ([5]; 250 mg/kg oral) of the same compound?
Answer: The Total lipid was 70.3 ± 10.2 mg/g-liver.

Question: And the Triglyceride ([5]; 250 mg/kg oral)?
Answer: Its Triglyceride is 24.9 ± 8.2 mg/g-liver.

Question: What about the “Degree of fatty liver (histopathological examination)” value ([5]; 250 mg/kg oral) of the same compound?
Answer: The value was “± ± - - ± ± ±”.

Question: And the “Blood Sugar” value (glucose metabolism [6])?
Answer: The value was 138 ± 18.2 mg/dL.

Question: And the “Concentration of Ethyl alcohol in Plasma” value ([7]; 0 min)?
Answer: The value was 12±3 ppm.

Question: And the “Concentration of Ethyl alcohol in Plasma” value ([7]; 5 min)?
Answer: The value was 732±102 ppm.

Question: What about the “Concentration of Ethyl alcohol in Plasma” value ([7]; 15 min) of the same compound?
Answer: Its value is 710±88 ppm.

Question: And the “Concentration of Ethyl alcohol in Plasma” value ([7]; 30 min)?
Answer: The value was 455±112 ppm.

Question: What about the “Concentration of Ethyl alcohol in Plasma” value ([7]; 60 min) of the same compound?
Answer: Its value is 12±7 ppm.
